Experimental data taken from ChEMBL document CHEMBL5247679, “Novel Quinoline Compounds as KRAS Inhibitors for Treating Cancer” (ACS Med Chem Lett, 2023).

Experiments:
GTPase KRas [1] = biological target: GTPase KRas (Homo sapiens, UniProt P01116, G12D); assay: Inhibition of KRAS G12D mutant (unknown origin) preincubated for 4 hrs followed by SOS1 addition and measured after 2 hrs by fluorescence based analysis
GTPase KRas [2] = biological target: GTPase KRas (Homo sapiens, UniProt P01116, G12V); assay: Inhibition of KRAS G12V mutant (unknown origin) preincubated for 4 hrs followed by SOS1 addition and measured after 3 hrs by fluorescence based analysis
GTPase KRas (Homo sapiens, UniProt P01116, G12V), sequence (P01116 whole entry G12V): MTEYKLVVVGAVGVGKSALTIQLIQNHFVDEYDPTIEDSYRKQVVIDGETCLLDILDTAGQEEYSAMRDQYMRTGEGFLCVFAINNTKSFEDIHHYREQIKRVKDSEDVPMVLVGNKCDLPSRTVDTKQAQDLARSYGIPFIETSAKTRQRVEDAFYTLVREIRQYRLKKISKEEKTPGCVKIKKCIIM

GTPase KRas (Homo sapiens, UniProt P01116, G12D), sequence (P01116 whole entry G12D): as the sequence (P01116 whole entry G12V) above, with V12D counted along it

IC50 (GTPase KRas [1]) [nM]	IC50 (GTPase KRas [2]) [nM]	Compound
≤ 100	≤ 100	Cc1nc2c(F)c(-c3cccc(Cl)c3Cl)c(CCC#N)cc2c2c1cc([C@@H](C)NS(=O)(=O)C1CC1)n2[C@H]1[C@H]2CN[C@@H]1C2
≤ 100	≤ 100	Cc1nc2c(F)c(-c3cccc(Cl)c3Cl)c(CCC#N)cc2c2c1cc([C@@H](C)NC(=O)c1ccncn1)n2[C@H]1[C@H]2CN[C@@H]1C2
≤ 100	≤ 100	Cc1cc2c(-n3cncn3)nc3c(F)c(-c4cc(O)cc5ccc(Cl)cc45)c(CCC#N)cc3c2n1[C@H]1[C@H]2CN[C@@H]1C2
≤ 100	≤ 100	CN(C)C1(C)CN(c2nc3c(F)c(-c4cccc5ccc(F)cc45)c(CCC#N)cc3c3c2cc(CN2CCOCC2=O)n3[C@@H]2[C@@H]3CN[C@H]2C3)C1
≤ 100	≤ 100	C[C@H](Oc1nc2c(F)c(-c3csc4ccccc34)c(CCC#N)cc2c2c1cc(CN1CCCC1=O)n2[C@H]1[C@H]2CN[C@@H]1C2)[C@@H]1CCCN1C
≤ 100	≤ 100	Cc1nc2c(F)c(-c3cccc(Cl)c3Cl)c(CCC#N)cc2c2c1cc([C@@H](C)NC(=O)c1cscn1)n2[C@H]1[C@H]2CN[C@@H]1C2
